We go through 16 molecules from paper PMC9307114, “Discovery and SAR analysis of phenylbenzo[d][1,3]dioxole-based proprotein convertase subtilisin/kexin type 9 inhibitors” (Journal of Enzyme Inhibition and Medicinal Chemistry, 2022).

One assay concerns HepG2 cells. The assay is described as follows: MTT assay on HepG2 cells. It counts as cell-based. Conditions: Homo sapiens, mean of three experiments, read-out: HepG2 percentage inhibitory rate. A general note: Tetrazolium dyes change colour on reduction, which living cells bring about.
Another assay deals with PCSK9/LDLR PPI (Homo sapiens, UniProt Q8NBP7). The assay is described as follows: PCSK9-LDLR TR-FRET assay (PCSK9/LDLR PPI inhibitory screening). It counts as binding. To be noted: 10 µM; mean of three experiments; read-out: PCSK9 percentage inhibitory rate. The method, then: The PCSK9/LDLR time-resolved fluorescence resonance energy transfer (TR-FRET) assay was performed to evaluate the activity of synthesised compounds in inhibition of PCSK9-LDLR binding. The A series compounds were firstly synthesised for the PCSK9/LDLR PPI inhibitory test. […] Therefore, a group of A12 derivatives (B series) were synthesised with 4-chlorobenzyl substituted in the amino group and various substitutions introduced to the carboxylic group. […] To confirm whether the 4-chloromethyl group is essential for the PPI inhibitory activity, a new series of compounds (C series) were synthesised with the 4-chloromethyl group replaced by 4-methoxymethyl moiety. The inhibitory activity was observed, most likely resulting from the 4-methoxymethyl substitution (Table 3).
The compounds were dissolved in 100% DMSO; then 2 µL of the dilution was added to a 20 µL of reaction to keep […] in all of reactions. The binding reaction was conducted at room temperature. The reaction mixture in assay buffer contains PCSK9, the indicated amount of the inhibitor, ligand LDLR, and the reaction dyes. The reaction mixture was incubated for 120 min before detection of the TR-FRET signal. Fluorescence signals for both the donor and acceptor dyes were measured using a Tecan Infinite M1000 plate reader. TR-FRET was recorded as the ratio of the fluorescence of the acceptor and the donor dyes (acceptor/donor). The TR-FRET data were analysed using Graphpad Prism software.
On the technique in general: Time-resolved FRET reads energy transfer from a long-lived donor to a nearby acceptor.

Sequence of PCSK9/LDLR PPI (Q8NBP7 153-692): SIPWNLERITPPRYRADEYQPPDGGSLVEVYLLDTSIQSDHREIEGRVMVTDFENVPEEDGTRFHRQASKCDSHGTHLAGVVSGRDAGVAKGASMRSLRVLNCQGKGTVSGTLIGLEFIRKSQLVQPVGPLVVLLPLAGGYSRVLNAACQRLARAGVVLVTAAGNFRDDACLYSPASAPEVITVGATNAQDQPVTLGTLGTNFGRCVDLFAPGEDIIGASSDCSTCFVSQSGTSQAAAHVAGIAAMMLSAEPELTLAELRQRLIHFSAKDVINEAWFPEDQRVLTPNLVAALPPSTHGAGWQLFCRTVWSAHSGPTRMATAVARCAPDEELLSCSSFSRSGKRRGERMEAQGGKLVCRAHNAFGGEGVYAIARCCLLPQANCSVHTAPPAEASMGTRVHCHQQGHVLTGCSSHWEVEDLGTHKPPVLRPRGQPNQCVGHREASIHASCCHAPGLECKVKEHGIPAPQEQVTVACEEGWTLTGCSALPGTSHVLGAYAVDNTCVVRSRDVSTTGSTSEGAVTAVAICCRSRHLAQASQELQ
Sequence of PCSK9/LDLR PPI (Q8NBP7 31-152 partner limits assumed): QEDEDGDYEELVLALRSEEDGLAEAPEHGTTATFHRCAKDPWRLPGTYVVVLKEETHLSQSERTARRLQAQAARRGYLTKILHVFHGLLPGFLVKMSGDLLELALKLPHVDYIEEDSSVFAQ

Consider `CCc1ccc(N2CCN(C(=O)c3ccc(-c4cc5c(cc4NC(=O)c4ccc(CCl)cc4)OCO5)cc3)CC2)cc1` [B15, 4-(Chloromethyl)-N-(6-(4-(4-(4-ethylphenyl)piperazine-1-carbonyl)phenyl)benzo[d][1,3]dioxol-5-yl)benzamide], for which the inhibition at 10 µM with HepG2 cells was 8.91 ± 0.62%; on PCSK9/LDLR PPI, 7.22 ± 0.71%.
The corresponding values for `O=C(Nc1cc2c(cc1-c1ccc(C(=O)N3CCN(c4ccc(Cl)cc4)CC3)cc1)OCO2)c1ccc(CCl)cc1` [B16, 4-(Chloromethyl)-N-(6-(4-(4-(4-chlorophenyl)piperazine-1-carbonyl)phenyl)benzo[d][1,3]dioxol-5-yl)benzamide] are 10.2 ± 0.91% and 7.94 ± 0.03%.
In the case of `O=C(Nc1cc2c(cc1-c1ccc(C(=O)N3CCN(c4ccc(F)cc4)CC3)cc1)OCO2)c1ccc(CCl)cc1` [B17, 4-(Chloromethyl)-N-(6-(4-(4-(4-fluorophenyl)piperazine-1-carbonyl)phenyl)benzo[d][1,3]dioxol-5-yl)benzamide], the values for the inhibition at 10 µM in the assay with HepG2 cells and at PCSK9/LDLR PPI were 16.4 ± 1.18% and 4.07 ± 0.25%, respectively.
Turning to `CCN1CCN(C(=O)c2ccc(-c3cc4c(cc3NC(=O)c3ccc(CCl)cc3)OCO4)cc2)CC1` [B18, 4-(Chloromethyl)-N-(6-(4-(4-ethylpiperazine-1-carbonyl)phenyl)benzo[d][1,3]dioxol-5-yl)benzamide], the inhibition at 10 µM turned out to be 6.76 ± 0.26% in the assay on HepG2 cells and 5.66 ± 0.02% on PCSK9/LDLR PPI.
`CC(C)N1CCN(C(=O)c2ccc(-c3cc4c(cc3NC(=O)c3ccc(CCl)cc3)OCO4)cc2)CC1` [B19, 4-(Chloromethyl)-N-(6-(4-(4-isopropylpiperazine-1-carbonyl)phenyl)benzo[d][1,3]dioxol-5-yl)benzamide]: the inhibition at 10 µM in the assay on HepG2 cells came out at 8.38 ± 0.81%; at PCSK9/LDLR PPI, 5.82 ± 0.31%.
The like results for `CC(C)NC(=O)c1ccc(-c2cc3c(cc2NC(=O)c2ccc(CCl)cc2)OCO3)cc1` [B20, 4-(Chloromethyl)-N-(6-(4-(isopropylcarbamoyl)phenyl)benzo[d][1,3]dioxol-5-yl)benzamide] were, in that order, 9.55 ± 0.43% and 3.15 ± 0.13%.
The like results for `COCc1ccc(C(=O)Nc2cc3c(cc2-c2ccc(C(=O)Nc4cc(OC)cc(OC)c4)cc2)OCO3)cc1` [C1, N-(3,5-dimethoxyphenyl)-4-(6-(4-(methoxymethyl)benzamido)benzo[d][1,3]dioxol-5-yl)benzamide] were, in that order, 6.21 ± 0.22% and 21.6 ± 1.67%.
The corresponding values for `COCc1ccc(C(=O)Nc2cc3c(cc2-c2ccc(C(=O)N4CCN(C(=O)OC(C)(C)C)CC4)cc2)OCO3)cc1` [C2, Tert-butyl4-(4-(6-(4-(methoxymethyl)benzamido)benzo[d][1,3]dioxol-5-yl)benzoyl)piperazine-1-carboxylate] are 13.5 ± 1.13% and 17.8 ± 1.24%.
For the molecule `COCc1ccc(C(=O)Nc2cc3c(cc2-c2ccc(C(=O)N4CCN(c5ccc(OC)cc5)CC4)cc2)OCO3)cc1` [C3, 4-(Methoxymethyl)-N-(6-(4-(4-(4-methoxyphenyl)piperazine-1-carbonyl)phenyl)benzo[d][1,3]dioxol-5-yl)benzamide], the inhibition at 10 µM stood at 6.62 ± 0.45% in the assay on HepG2 cells and 25.3 ± 2.11% on PCSK9/LDLR PPI.
The like results for `COCc1ccc(C(=O)Nc2cc3c(cc2-c2ccc(C(=O)N4CCN(c5ccccc5OC)CC4)cc2)OCO3)cc1` [C4, 4-(Methoxymethyl)-N-(6-(4-(4-(2-methoxyphenyl)piperazine-1-carbonyl)phenyl)benzo[d][1,3]dioxol-5-yl)benzamide] were, in that order, 6.77 ± 0.62% and 7.55 ± 0.71%.
The like results for `COCc1ccc(C(=O)Nc2cc3c(cc2-c2ccc(C(=O)N4CCN(CCc5ccccc5)CC4)cc2)OCO3)cc1` [C5, 4-(Methoxymethyl)-N-(6-(4-(4-phenethylpiperazine-1-carbonyl)phenyl)benzo[d][1,3]dioxol-5-yl)benzamide] were, in that order, 5.63 ± 0.37% and 5.92 ± 0.32%.
The like results for `COCc1ccc(C(=O)Nc2cc3c(cc2-c2ccc(C(=O)N4CCN(c5ccccc5)CC4)cc2)OCO3)cc1` [C6, 4-(Methoxymethyl)-N-(6-(4-(4-phenylpiperazine-1-carbonyl)phenyl)benzo[d][1,3]dioxol-5-yl)benzamide] were, in that order, 6.15 ± 0.26% and 3.39 ± 1.67%.
`COCc1ccc(C(=O)Nc2cc3c(cc2-c2ccc(C(=O)N4CCN(c5ccc(F)cc5)CC4)cc2)OCO3)cc1` [C7, N-(6-(4-(4-(4-fluorophenyl)piperazine-1-carbonyl)phenyl)benzo[d][1,3]dioxol-5-yl)-4-(methoxymethyl)benzamide]: the inhibition at 10 µM with HepG2 cells stood at 12.8 ± 1.07%; on PCSK9/LDLR PPI, 33.4 ± 1.52%.
The like results for `COCc1ccc(C(=O)Nc2cc3c(cc2-c2ccc(C(=O)N4CCN(c5ccc(Cl)cc5)CC4)cc2)OCO3)cc1` [C8, N-(6-(4-(4-(4-chlorophenyl)piperazine-1-carbonyl)phenyl)benzo[d][1,3]dioxol-5-yl)-4-(methoxymethyl)benzamide] were, in that order, 14.5 ± 1.22% and 25.7 ± 1.2%.
As for `COCc1ccc(C(=O)Nc2cc3c(cc2-c2ccc(C(=O)Nc4ccc(N5CCN(C)CC5)cc4)cc2)OCO3)cc1` [C9, 4-(Methoxymethyl)-N-(6-(4-((4-(4-methylpiperazin-1-yl)phenyl)carbamoyl)phenyl)benzo[d][1,3]dioxol-5-yl)benzamide], the inhibition at 10 µM in the assay with HepG2 cells was found to be 6.22 ± 0.24%; on PCSK9/LDLR PPI, 3.75 ± 0.33%.
In the case of `COCc1ccc(C(=O)Nc2cc3c(cc2-c2ccc(C(=O)NC(C)C)cc2)OCO3)cc1` [C10, N-isopropyl-4-(6-(4-(methoxymethyl)benzamido)benzo[d][1,3]dioxol-5-yl)benzamide], the inhibition at 10 µM in the assay with HepG2 cells came out at 6.76 ± 0.18%; on PCSK9/LDLR PPI, 5.48 ± 0.2%.
